Reference: patent EP1247803A2, “Indolinone compounds suitable for modulation of protein kinases” (Sugen, Inc., priority 1996, dated 1998)

Assays:
PDGF-R = PDGF-R (Homo sapiens, UniProt P09619); assay: PDGF-R ELISA; type: cell-based
Source text: A PDGF-R ELISA is described in International Patent Publication No. WO 96/40116, published December 19, 1996 by Tang et al.

FLK-1 receptor = target: T1, FLK-1 receptor (Mus musculus, UniProt P35918); assay: FLK-1 ELISA (kinase activity of the FLK-1 receptor in FLK-1/NIH3T3 cells, VEGF stimulated); type: cell-based
T1 construct: expressed in transfected cells; host or cells: NIH3T3 C7#3
In short: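 An ELISA using affinity-purified rabbit anti-FLK-1 antiserum on anti-rabbit IgG-coated plates measured VEGF-stimulated FLK-1 kinase activity. NIH3T3 C7#3 cells carrying FLK-1 were serum-starved (0.1% FBS) overnight, then exposed to compound (final 1:200 dilution, 0.5% DMSO) for two hours at 37 °C.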

Sequence of PDGF-R (P09619 33-1106, species assumed): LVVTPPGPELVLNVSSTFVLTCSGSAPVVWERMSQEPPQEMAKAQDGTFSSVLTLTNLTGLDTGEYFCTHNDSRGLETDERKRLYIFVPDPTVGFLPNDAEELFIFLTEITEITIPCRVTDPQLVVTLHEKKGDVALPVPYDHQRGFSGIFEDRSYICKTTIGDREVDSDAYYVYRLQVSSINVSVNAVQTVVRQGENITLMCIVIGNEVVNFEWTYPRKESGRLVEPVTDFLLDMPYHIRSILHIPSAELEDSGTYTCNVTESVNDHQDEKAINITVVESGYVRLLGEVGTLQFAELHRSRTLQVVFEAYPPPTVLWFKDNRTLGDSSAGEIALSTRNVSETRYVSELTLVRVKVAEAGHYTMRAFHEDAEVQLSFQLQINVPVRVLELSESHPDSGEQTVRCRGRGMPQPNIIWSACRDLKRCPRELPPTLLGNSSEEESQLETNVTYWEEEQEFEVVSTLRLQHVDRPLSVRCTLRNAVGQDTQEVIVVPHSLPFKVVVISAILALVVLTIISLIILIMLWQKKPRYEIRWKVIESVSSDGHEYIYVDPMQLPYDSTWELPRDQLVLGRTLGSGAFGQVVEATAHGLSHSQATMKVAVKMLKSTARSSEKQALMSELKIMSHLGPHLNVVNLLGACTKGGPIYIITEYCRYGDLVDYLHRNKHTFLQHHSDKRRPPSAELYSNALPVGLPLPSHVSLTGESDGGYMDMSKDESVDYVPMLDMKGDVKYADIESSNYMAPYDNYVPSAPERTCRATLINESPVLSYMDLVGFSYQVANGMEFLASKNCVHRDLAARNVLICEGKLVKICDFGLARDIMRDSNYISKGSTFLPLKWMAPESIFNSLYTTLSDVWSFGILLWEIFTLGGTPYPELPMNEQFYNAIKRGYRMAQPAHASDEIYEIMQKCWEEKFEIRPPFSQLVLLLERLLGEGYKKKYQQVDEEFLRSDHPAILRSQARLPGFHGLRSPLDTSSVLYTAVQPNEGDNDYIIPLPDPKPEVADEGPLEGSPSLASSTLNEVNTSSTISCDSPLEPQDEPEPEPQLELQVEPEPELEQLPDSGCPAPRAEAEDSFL
T1 sequence (P35918 20-1345): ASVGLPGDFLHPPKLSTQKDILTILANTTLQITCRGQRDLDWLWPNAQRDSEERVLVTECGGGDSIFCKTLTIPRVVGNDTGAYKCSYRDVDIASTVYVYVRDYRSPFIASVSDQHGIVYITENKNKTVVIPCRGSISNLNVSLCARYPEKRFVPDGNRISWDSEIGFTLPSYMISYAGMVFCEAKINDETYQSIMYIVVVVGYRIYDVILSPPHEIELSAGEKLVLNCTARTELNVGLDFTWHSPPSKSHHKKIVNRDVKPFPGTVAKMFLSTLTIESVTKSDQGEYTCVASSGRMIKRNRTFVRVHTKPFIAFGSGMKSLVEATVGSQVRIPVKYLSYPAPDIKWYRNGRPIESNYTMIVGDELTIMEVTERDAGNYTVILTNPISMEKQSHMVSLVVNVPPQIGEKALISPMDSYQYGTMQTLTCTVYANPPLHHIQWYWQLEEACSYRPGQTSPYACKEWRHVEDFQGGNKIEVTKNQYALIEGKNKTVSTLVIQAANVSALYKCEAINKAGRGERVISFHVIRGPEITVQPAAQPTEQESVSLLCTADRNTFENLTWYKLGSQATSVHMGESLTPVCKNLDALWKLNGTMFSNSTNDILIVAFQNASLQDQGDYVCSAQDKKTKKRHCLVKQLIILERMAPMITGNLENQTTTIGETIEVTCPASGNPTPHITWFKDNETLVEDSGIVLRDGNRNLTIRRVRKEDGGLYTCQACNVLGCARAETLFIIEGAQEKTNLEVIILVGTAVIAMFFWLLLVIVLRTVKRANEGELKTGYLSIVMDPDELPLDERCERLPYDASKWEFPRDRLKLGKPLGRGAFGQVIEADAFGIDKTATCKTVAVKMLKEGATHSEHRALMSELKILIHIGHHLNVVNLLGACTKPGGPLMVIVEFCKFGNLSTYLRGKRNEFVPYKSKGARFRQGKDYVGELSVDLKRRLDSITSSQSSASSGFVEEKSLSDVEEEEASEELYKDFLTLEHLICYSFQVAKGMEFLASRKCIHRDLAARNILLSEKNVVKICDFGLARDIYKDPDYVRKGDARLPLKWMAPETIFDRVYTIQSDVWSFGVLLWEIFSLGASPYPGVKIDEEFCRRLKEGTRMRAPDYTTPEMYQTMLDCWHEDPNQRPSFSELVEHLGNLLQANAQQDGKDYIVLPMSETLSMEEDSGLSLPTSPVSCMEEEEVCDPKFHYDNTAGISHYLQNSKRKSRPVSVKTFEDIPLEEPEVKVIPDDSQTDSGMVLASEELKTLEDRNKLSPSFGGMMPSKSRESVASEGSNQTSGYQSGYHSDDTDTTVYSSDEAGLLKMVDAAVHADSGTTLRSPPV

CCN(CC)c1ccc(C=C2C(=O)Nc3ccc(I)cc32)cc1 [10727/B02]
PDGF Kinase %Inhibition (PDGF-R): -10.3% | Fik Kinase %Inhibition (FLK-1 receptor): 2.4%

CNS(=O)(=O)c1ccc2c(c1)C(=Cc1cn(C)cc1C)C(=O)N2 [10726/D06]
PDGF Kinase %Inhibition (PDGF-R): 28.4% | Fik Kinase %Inhibition (FLK-1 receptor): 16.3%

O=C1Nc2ccc(F)cc2C1=C1C(=O)Nc2ccc(S(=O)(=O)Nc3ccc(C(F)(F)F)cc3)cc21 [10726/E08]
PDGF Kinase %Inhibition (PDGF-R): 34.1% | Fik Kinase %Inhibition (FLK-1 receptor): 4.1%

CNS(=O)(=O)c1ccc2c(c1)C(=C1C(=O)Nc3ccccc31)C(=O)N2 [10726/D09]
PDGF Kinase %Inhibition (PDGF-R): 22.1% | Fik Kinase %Inhibition (FLK-1 receptor): 14.4%

Cc1c(Br)ccc2c1C(=Cc1cccc(C#N)c1)C(=O)N2 [10727/C08]
PDGF Kinase %Inhibition (PDGF-R): 23.2% | Fik Kinase %Inhibition (FLK-1 receptor): 4.9%

CCc1cc(CC)c(C=C2C(=O)Nc3ccc(Br)c(C)c32)[nH]1 [10727/C03]
PDGF Kinase %Inhibition (PDGF-R): 11.5% | Fik Kinase %Inhibition (FLK-1 receptor): -3.2%

Cc1c(Br)ccc2c1C(=Cc1ccc(C#N)cc1)C(=O)N2 [10727/C09]
PDGF Kinase %Inhibition (PDGF-R): 21.7% | Fik Kinase %Inhibition (FLK-1 receptor): -13.5%

CCc1ccc(C=C2C(=O)Nc3ccc(CCCl)cc32)s1 [10726/G10]
PDGF Kinase %Inhibition (PDGF-R): -7.0% | Fik Kinase %Inhibition (FLK-1 receptor): 10.5%

COc1ccc(C=C2C(=O)Nc3ccc(S(=O)(=O)N4CCOCC4)cc32)cc1 [10726/F11]
PDGF Kinase %Inhibition (PDGF-R): 25.2% | Fik Kinase %Inhibition (FLK-1 receptor): 13.6%

Cc1c(Br)ccc2c1C(=Cc1coc3ccccc3c1=O)C(=O)N2 [10727/C07]
PDGF Kinase %Inhibition (PDGF-R): 13.0% | Fik Kinase %Inhibition (FLK-1 receptor): 15.9%

O=C1Nc2c(Br)cc(Br)cc2C1=Cc1cc(Cl)cc(Br)c1O [10727/A04]
PDGF Kinase %Inhibition (PDGF-R): 12.3% | Fik Kinase %Inhibition (FLK-1 receptor): -4.6%

O=C1Nc2ccc(I)cc2C1=Cc1coc2ccccc2c1=O [10727/B07]
PDGF Kinase %Inhibition (PDGF-R): 0.6% | Fik Kinase %Inhibition (FLK-1 receptor): 8.4%

N#Cc1cccc(C=C2C(=O)Nc3c(Br)cc(Br)cc32)c1 [10727/A08]
PDGF Kinase %Inhibition (PDGF-R): 15.2% | Fik Kinase %Inhibition (FLK-1 receptor): -0.6%

CCOC(=O)c1[nH]c(C=C2C(=O)Nc3ccc(CCCl)cc32)c(C(=O)OC)c1C [10726/G03]
PDGF Kinase %Inhibition (PDGF-R): 4.3% | Fik Kinase %Inhibition (FLK-1 receptor): 11.3%

O=C1Nc2ccc(S(=O)(=O)N3CCOCC3)cc2C1=Cc1ccc(Br)o1 [10726/F05]
PDGF Kinase %Inhibition (PDGF-R): -17.8% | Fik Kinase %Inhibition (FLK-1 receptor): 8.9%

CNS(=O)(=O)c1ccc2c(c1)C(=C1C(=O)Nc3ccc(F)cc31)C(=O)N2 [10726/D08]
PDGF Kinase %Inhibition (PDGF-R): 22.1% | Fik Kinase %Inhibition (FLK-1 receptor): 12.1%

COc1ccc(C=C2C(=O)Nc3ccc(Br)c(C)c32)cc1 [10726/C11]
PDGF Kinase %Inhibition (PDGF-R): 51.1% | Fik Kinase %Inhibition (FLK-1 receptor): -32.2%
